ChEMBL document CHEMBL3585246, “Design, synthesis and evaluation of novel 2-butyl-4-chloroimidazole derived peptidomimetics as Angiotensin Converting Enzyme (ACE) inhibitors” (Bioorg Med Chem, 2015)

What was measured:
[1] = target: T1, Angiotensin-converting enzyme (Oryctolagus cuniculus) (UniProt P12822); test: Inhibition of rabbit lung ACE assessed as hippuryl-histidyl-leucine hydrolysis at 1 uM after 30 mins by colorimetric method
T1 sequence (whole entry): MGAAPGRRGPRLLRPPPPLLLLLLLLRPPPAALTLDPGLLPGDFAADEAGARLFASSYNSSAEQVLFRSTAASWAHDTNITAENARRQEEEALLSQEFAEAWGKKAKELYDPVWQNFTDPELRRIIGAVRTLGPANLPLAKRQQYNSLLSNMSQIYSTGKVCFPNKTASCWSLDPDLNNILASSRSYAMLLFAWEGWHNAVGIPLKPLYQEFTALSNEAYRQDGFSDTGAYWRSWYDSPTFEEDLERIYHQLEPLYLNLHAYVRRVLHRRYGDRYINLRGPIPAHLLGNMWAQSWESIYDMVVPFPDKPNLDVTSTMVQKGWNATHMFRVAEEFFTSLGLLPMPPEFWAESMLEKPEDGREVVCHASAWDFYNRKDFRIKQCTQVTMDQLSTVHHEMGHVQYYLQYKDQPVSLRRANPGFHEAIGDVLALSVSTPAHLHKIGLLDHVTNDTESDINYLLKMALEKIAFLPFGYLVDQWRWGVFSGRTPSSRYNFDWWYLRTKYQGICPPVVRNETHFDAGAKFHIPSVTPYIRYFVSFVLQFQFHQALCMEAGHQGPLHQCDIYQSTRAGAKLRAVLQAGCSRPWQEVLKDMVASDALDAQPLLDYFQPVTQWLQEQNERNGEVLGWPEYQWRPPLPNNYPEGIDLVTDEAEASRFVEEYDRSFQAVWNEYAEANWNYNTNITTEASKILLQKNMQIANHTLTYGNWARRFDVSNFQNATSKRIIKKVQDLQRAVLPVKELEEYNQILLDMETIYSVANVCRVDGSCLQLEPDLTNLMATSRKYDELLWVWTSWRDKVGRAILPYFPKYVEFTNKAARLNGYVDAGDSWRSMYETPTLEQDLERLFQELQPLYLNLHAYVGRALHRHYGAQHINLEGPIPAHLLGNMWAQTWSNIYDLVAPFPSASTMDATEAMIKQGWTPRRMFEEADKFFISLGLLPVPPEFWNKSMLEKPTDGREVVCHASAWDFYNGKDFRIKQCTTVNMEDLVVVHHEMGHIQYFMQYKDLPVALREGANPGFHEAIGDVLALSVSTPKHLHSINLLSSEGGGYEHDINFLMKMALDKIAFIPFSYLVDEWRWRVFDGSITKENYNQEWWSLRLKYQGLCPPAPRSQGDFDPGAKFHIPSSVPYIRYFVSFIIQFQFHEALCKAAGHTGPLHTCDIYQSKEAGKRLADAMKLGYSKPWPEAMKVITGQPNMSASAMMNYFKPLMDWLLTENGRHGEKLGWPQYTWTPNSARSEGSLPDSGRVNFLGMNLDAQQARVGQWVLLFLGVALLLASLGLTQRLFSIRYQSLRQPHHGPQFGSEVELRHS

[2] = target: T2, Angiotensin-converting enzyme (Oryctolagus cuniculus, UniProt P12822); test: Inhibition of rabbit lung ACE assessed as hippuryl-histidyl-leucine hydrolysis after 30 mins by colorimetric method
T2 sequence (P12822 whole entry): T1 sequence (whole entry)

ACE (rabbit lung) [3] = test: Ratio of IC50 for human A549 cells to IC50 for rabbit lung ACE; format: cell-based; details: read-out: Ratio IC50
ACE (rabbit lung) [4] = test: Ratio of IC50 for HEK cells to IC50 for rabbit lung ACE; format: cell-based, HEK293; details: read-out: Ratio IC50

SMILES	inhibition [1]	IC50 [2]	selectivity ratio (ACE (rabbit lung) [3])	selectivity ratio (ACE (rabbit lung) [4])
CCOC(=O)[C@H](CCc1ccccc1)N[C@H]1CCc2ccccc2N(CC(=O)O)C1=O [BENAZEPRIL]		100 nM		
CCCCc1nc(Cl)c(C(=O)N[C@@H](Cc2ccc(O)cc2)C(=O)OC)n1C	55%			
CCCCc1nc(Cl)c(C(=O)N[C@@H](CCSC)C(=O)O)n1C	> 80%	657 nM	1000	1000
CCCCc1nc(Cl)c(C(=O)N[C@@H](CCSC)C(=O)OC)n1C	55%			
CCCCc1nc(Cl)c(C(=O)N[C@@H](Cc2ccccc2)C(=O)OC)n1C	> 80%	647 nM	1000	1000
CCCCc1nc(Cl)c(C(=O)N[C@@H](CO)C(=O)OC)n1C	55%			
CCCCc1nc(Cl)c(C(=O)NCC(=O)OC)n1C	55%			
CCCCc1nc(Cl)c(C(=O)N[C@H](C(=O)O)[C@H](C)CC)n1C	> 80%	1120 nM	1000	1000
CCCCc1nc(Cl)c(C(=O)N[C@@H](CO)C(=O)O)n1C	55%			
NCCCC[C@H](N[C@@H](CCc1ccccc1)C(=O)O)C(=O)N1CCC[C@H]1C(=O)O [LISINOPRIL ANHYDROUS]		318 nM		
CCCCc1nc(Cl)c(C(=O)N[C@@H](C)C(=O)O)n1C	55%			
CCCCc1nc(Cl)c(C(=O)N[C@H](C(=O)OC)[C@H](C)O)n1C	55%			
CCCCc1nc(Cl)c(C(=O)N[C@@H](C)C(=O)OC)n1C	55%			
CCCCc1nc(Cl)c(C(=O)N[C@H](C(=O)OC)[C@H](C)CC)n1C	55%			

Continued, in another order:

inhibition [1]	IC50 [2]	SMILES	selectivity ratio (ACE (rabbit lung) [3])	selectivity ratio (ACE (rabbit lung) [4])
55%		CCCCc1nc(Cl)c(C(=O)N[C@@H](CC(C)C)C(=O)OC)n1C		
55%		CCCCc1nc(Cl)c(C(=O)N[C@H](C(=O)OC)C(C)C)n1C		
55%		CCCCc1nc(Cl)c(C(=O)NCC(=O)O)n1C		
55%		CCCCc1nc(Cl)c(C(=O)N[C@@H](CC(C)C)C(=O)O)n1C		
> 80%	531 nM	CCCCc1nc(Cl)c(C(=O)N[C@@H](Cc2c[nH]c3ccccc23)C(=O)OC)n1C	1000	1000
55%	100 nM	CCCCc1nc(Cl)c(C(=O)N[C@@H](Cc2ccccc2)C(=O)O)n1C	1000	1000
> 80%		CCCCc1nc(Cl)c(C(=O)N[C@@H](Cc2c[nH]c3ccccc23)C(=O)O)n1C		
55%		CCCCc1nc(Cl)c(C(=O)N[C@@H](Cc2ccc(O)cc2)C(=O)O)n1C		
55%		CCCCc1nc(Cl)c(C(=O)N[C@H](C(=O)O)C(C)C)n1C		
55%		CCCCc1nc(Cl)c(C(=O)N[C@H](C(=O)O)[C@H](C)O)n1C		
